According to patent publication US20090075987A1, “ALKYLACETYLENE SUBSTITUTED ACYLTRYPTOPHANOLS” (priority 2007, published 2009):

Target: T1, human FSH receptor (Homo sapiens, UniProt P23945)
T1 construct: expressed in transfected cells; host or cells: CHO cells (hFSHR clone 16)
T1 sequence (P23945 18-695): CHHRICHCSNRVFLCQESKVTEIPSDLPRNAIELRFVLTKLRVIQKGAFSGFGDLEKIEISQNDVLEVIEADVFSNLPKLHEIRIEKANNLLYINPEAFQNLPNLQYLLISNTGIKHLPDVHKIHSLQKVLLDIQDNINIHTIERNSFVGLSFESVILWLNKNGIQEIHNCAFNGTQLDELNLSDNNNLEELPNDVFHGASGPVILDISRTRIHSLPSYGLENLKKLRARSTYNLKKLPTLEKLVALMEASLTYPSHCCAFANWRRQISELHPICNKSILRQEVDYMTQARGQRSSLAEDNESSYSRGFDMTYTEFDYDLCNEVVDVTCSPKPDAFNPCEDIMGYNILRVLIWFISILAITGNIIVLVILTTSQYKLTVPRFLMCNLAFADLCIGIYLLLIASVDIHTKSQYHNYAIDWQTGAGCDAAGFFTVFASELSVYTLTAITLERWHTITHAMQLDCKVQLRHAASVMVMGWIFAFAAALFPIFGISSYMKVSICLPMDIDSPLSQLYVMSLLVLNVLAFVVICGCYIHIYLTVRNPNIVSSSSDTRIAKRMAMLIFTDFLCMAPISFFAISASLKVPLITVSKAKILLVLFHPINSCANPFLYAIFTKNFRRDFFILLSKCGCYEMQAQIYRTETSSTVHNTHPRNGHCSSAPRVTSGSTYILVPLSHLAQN
Assay: HTRF assay for measuring cAMP in cells
Format: cell-based
Details: hFSHR clone 16 cells (CHO cells stably transfected with the human FSH receptor); in the presence of 1e-9 mol/l hFSH; 37° C. for 2 h; read-out: IC50 (FSH-antagonistic effect in the HTRF assay)
Method: HTRF Assay for Measuring cAMP in Cells
The method is based on a competitive immunoassay between native cAMP, which has been produced by the cells, and cAMP which is labelled with XL665. The tracer binding was visualized by a monoclonal antibody, anti-cAMP labelled with cryptate [HTRF=homogeneous time-resolved fluorescence].
The specific signal is inversely proportional to the cAMP concentration of the samples employed.
The 665 nm/620 nm fluorescence ratio was evaluated.
The following material was used: 96-well plates for the tissue culture, 96-well plates with black edge and black base (e.g. Fluotrac 600 from Greiner), 96-well plates for the substance dilutions of polypropylene and cAMP Femtomolar (4000 wells Kit, CIS Bio International # 62AM1PEC).
The following reagents were used: BSA (bovine serum albumin) Fraction V protease-free, IBMX (3-isobutyl-1-methylxanthine), hFSH (human follicle stimulating hormone), Triton X-100 analytical grade, potassium fluoride analytical grade, G 418 (Geneticin) and Accutase.
Buffer 1 (washing and testing buffer) contained PBS, 1 mM CaCl2, 1 mM MgCl2, 0.2% glucose; 0.1% BSA, 1 mM IBMX. Buffer 2 (2× lysis buffer) contained 1% Triton X-100 in PBS (without CaCl2 and MgCl2). Buffer 3 (assay buffer) contained 50 mM potassium phosphate buffer (pH 7.0); 800 mM potassium fluoride; 0.2% BSA (always added fresh).
On day 1, the cells were seeded in 96-well plates (3×10^4 cells per well hFSHR clone 16 cells (CHO cells stably transfected with the human FSH receptor in 150 μl of medium). The next day, test substance dilutions were made up. For this purpose, all the substances were diluted in ice-cold buffer 1 (with or without hFSH), and the substance dilutions were placed on ice until applied to the cells.
The cell supernatant was then aspirated off, and the cells were washed 2× with 200 μl of buffer 1. The cells were treated with 60 μl of the appropriate substance concentrations at 37° C. for 2 h. The cells were then lysed with 60 μl of buffer 2 (put onto the supernatant) (on a plate shaker at RT for 30 min).
The test conjugates (XL-665 and anti-cAMP cryptate) were diluted in buffer 3 in accordance with the manufacturers' information. The actual mixture for measurement was pipetted into a black 96-well plate (in each case 15 μl of the cell lysate diluted with 35 μl of buffer 1; firstly 25 μl of XL-665 conjugate were pipetted and, after 10 min, 25 μl of the anti-cAMP cryptate were added). This is followed by incubation at RT for 90 minutes. The measurement was carried out in a PheraStar (BMG).
Tissue Culture Conditions
1) hFSHr clone 16 Ham's F12 • PSG • 10% FCS • 700 μg/ml G 418 (Geneticin) from PAA.
Dose-effect curve (hFSH) for the human receptor: 1e-8, 3e-9, 1e-9, 3e-10, 1e-10, 3e-11, 1e-11, 3e-12 mol/l.
The test substances were employed in suitable dilutions in the absence (test for agonism) and in the presence of 1e-9 mol/l hFSH.
The values of the well ratio were averaged and then entered directly in SigmaPlot versus the concentrations. The maximum and minimum values were determined for each plate, and half the difference is to be regarded as IC50.

| IC50 | SMILES |
| --- | --- |
| 6000 nM | CNC(=O)N(C)CC#Cc1ccc(OC(C)C)c(C(=O)N[C@@H](CO)Cc2c[nH]c3ccccc23)c1 [Example 10, 5-[3-(1,3-Dimethyl-ureido)-prop-1-ynyl]-N-[(R)-1-hydroxymethyl-2-(1H-indol-3-yl)-ethyl]-2-isopropoxy-benzamide] |
| 600 nM | CC(C)Oc1ccc(C#CC(C)(C)C)cc1C(=O)N[C@@H](CO)Cc1c[nH]c2ccccc12 [Example 3, 5-(3,3-Dimethyl-but-1-ynyl)-N-[(R)-1-hydroxy-methyl-2-(1H-indol-3-yl)-ethyl]-2-isopropoxy-benzamide] |
| 200 nM | Cc1ccc(NC(=O)NCC#Cc2ccc(OC(C)C)c(C(=O)N[C@@H](CO)Cc3c[nH]c4ccccc34)c2)cc1 [Example 7, N-[(R)-1-Hydroxy-methyl-2-(1H-indol-3-yl)-ethyl]-2-isopropoxy-5-[3-(3-p-tolyl-ureido)-prop-1-ynyl]-benzamide] |
| 500 nM | CC(C)Oc1ccc(C#CCCCO)cc1C(=O)N[C@@H](CO)Cc1c[nH]c2ccccc12 [Example 8, N-[(R)-1-Hydroxy-methyl-2-(1H-indol-3-yl)-ethyl]-5-(5-hydroxy-pent-1-ynyl)-2-iso-propoxy-benzamide] |
| 4500 nM | CC(C)Oc1ccc(C#CCN2CCS(=O)(=O)CC2)cc1C(=O)N[C@@H](CO)Cc1c[nH]c2ccccc12 [Example 5, 5-[3-(1,1-Dioxo-1-lambda*6*-thiomorpho-lin-4-yl)-prop-1-ynyl]-N-[(R)-2-hydroxy-1-(1H-indol-3-ylmethyl)-ethyl]-2-isopropoxy-benzamide] |
